Assay results as given in US20250170088A1, “METHOD AND COMPOSITION FOR IMPROVING INTESTINAL MICROFLORA” (NANJING NUTRABUILDING BIO-TECH CO., LTD., priority 2022, published 2025).

What was measured:
Assay type in all cases: in vivo
Settings in all cases: obese mice induced by high-fat diet, 200 mg tributyrin daily, 8 weeks
Lactobacillus = assay: 16s rRNA sequencing of fecal samples, relative abundance change of Lactobacillus
Akkermansia muciniphila = assay: 16s rRNA sequencing of fecal samples, relative abundance change of Akkermansia muciniphila
Megamonas = assay: 16s rRNA sequencing of fecal samples, relative abundance change of Megamonas
Streptococcus gordonii = assay: 16s rRNA sequencing of fecal samples, level of Streptococcus gordonii
Klebsiella = assay: 16s rRNA sequencing of fecal samples, relative abundance change of Klebsiella

With `CCCC(=O)OCC(COC(=O)CCC)OC(=O)CCC` [tributyrin, Tributyrin] the “increase of the level of Lactobacillus” value (Lactobacillus) was 101%, the “increase of the level of Akkermansia muciniphila” value (Akkermansia muciniphila) was 119% and the “decrease of the level of Megamonas” value (Megamonas) was 91%. For the same molecule, the “decrease of the level of Streptococcus gordonii” value (Streptococcus gordonii) was “about 80%” and the “decrease of the level of Klebsiella” value (Klebsiella) was 67%.
